Entries after “also recorded” stand apart in the source; their conditions may differ.
Assays:
[1] = target: T1, SA-647 (Streptomyces avidinii, UniProt P22629); assay: Pooled bead library screen against SA-647 by FACS with LC-MS hit identification; format: binding; settings: about 50-plex pooled beads, SA-647 500 nM, IP+-modified derivatives
T1 construct: purchased ThermoFisher S3235
From the text: While the one compound per well screening format employed for the Figures and experiments works well, it will limit throughput for the analysis of much larger fragment libraries in the future. […] A photocleavable linker was placed between the fragment and the bead (Figure a). Beads displaying compounds 2, 3, and the oxazole analog of compound 2 were also constructed with the same architecture. Beads displaying all of these compounds were then mixed together in a single Mobicol tube (approximately 25,000 of each bead type).
The resin was incubated with SA-647 (500 nM, 300 μL) for 1 h at room temperature with gentle rotation.
Prior to releasing the compounds from the resin for analysis, we “clicked” a brominated imidazopyridinium unit (IP^+) to the alkyne unit in the linker of these beads via copper-catalyzed azide–alkyne cycloaddition (Figure a,c insert). This was done for three reasons. The first was to add a chromophore to molecules so that, after release from the beads, they could be detected sensitively using a UV detector on the LC trace. […]
After attachment of the IP^+ tag, the beads were washed with a 1:1 mixture of DMF and DCM and irradiated at 365 nm (4.5 × 10^3 μJ cm^–2) for 1 h in a 3:1 DCM/MeOH mixture to release the ligands from the beads. After evaporation of solvents, the eluate was redissolved in water and analyzed by LC-MS. […]

[2] = test system: monomeric streptavidin (mSA-647); assay: Bead pull-down with monomeric streptavidin; format: binding; settings: mSA-647 500 nM, 1 h, PBST, room temperature
Description: To investigate this, compound 2-displaying, compound 3-displaying, or blank (acetylated) beads were incubated with tetrameric SA-647 or iFluor647-conjugated monomeric streptavidin (mSA-647). Biotin-displaying beads (Figure S3) were also included in this experiment as a high-affinity comparator. […] No binding of either protein to compound 3-displaying beads was observed.
3 Stable binding of tetrameric SA to beads displaying compound 2 is highly dependent on avidity. […] Each compound was represented by 1 million 10 μm TentaGel beads, with 250,000 beads used per technical replicate. (b) Effect of ligand functionalization density on compound binding. Beads were functionalized with compound 2, compound 3, or biotin at varying surface densities (100% to 5%) and incubated with SA-647 (500 nM) for 1 h in PBST at room temperature as previously, before recording the fluorescence intensity.
General notes: • At each step, contents were mixed by pipetting up and down 3–5 times. • All steps following the addition of SA-647 were conducted in the dark. • SA-647 and mSA-647 were purchased from commercial sources; (SA-647: ThermoFisher cat#S3235, mSA-647: Millipore SAE178).

[3] = target: T1, SA-647; assay: Dose-dependent binding of SA-647 to bead-displayed ligands by FACS (MFI); settings: SA-647 0.1 to 1000 nM
Description: We next asked if the bead binding assay could distinguish complexes with different affinities for SA. 10 μm TentaGel beads displaying compound 2, compound 3, the oxazole analogue of compound 2 (Figure S4), or the SA-binding macrocycle 1 shown in Figure a were exposed to different concentrations of SA-647 ranging from 0.1 to 1000 nM. After washing, the intensity of fluorescence retained on the beads was measured using a flow cytometer, and the results were plotted as the mean fluorescence intensity (MFI) on the beads vs the protein concentration. […] Macrocycle 1, which binds SA with a K D of about 600 nM in solution (more than 1000 times more tightly than compound 2), binds SA-647 on resin at far lower concentrations than does compound 2.

[4] = target: T2, Streptavidin (SA) (Streptomyces avidinii, UniProt P22629); assay: SPR, soluble compound binding to immobilized streptavidin; settings: soluble mini-PEG attached compound, immobilized SA; read-out: KD (SPR)
T2 construct: purchased
T2 sequence (P22629 25-183, species assumed): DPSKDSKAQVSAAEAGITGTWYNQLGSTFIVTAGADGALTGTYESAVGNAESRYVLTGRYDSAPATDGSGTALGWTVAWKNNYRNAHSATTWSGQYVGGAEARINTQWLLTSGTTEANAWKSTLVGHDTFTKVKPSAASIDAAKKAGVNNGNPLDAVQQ
Description: The SPR binding affinity testing was conducted using the BIAcore 1K system (Cytiva) with BIAcore Insight Control Software. Streptavidin (50 μg/mL in 10 mM pH 5.0 NaOAc) was immobilized on a CM5 sensor chip (Cytiva) via amide coupling, using HBS-EP+ (10 mM HEPES, 150 mM NaCl, 3 mM EDTA, and 0.05% v/v Surfactant P20) as the immobilization buffer. Approximately 1000 RU of immobilization was achieved. Testing compounds were evaluated using the multiple-cycle kinetic/affinity method in PBS-P+ running buffer (20 mM phosphate buffer, 2.7 mM KCl, 137 mM NaCl, and 0.05% Surfactant P20), with a 200 s association time, 200 s dissociation time, and a flow rate of 45 μL/min. Binding affinities for the testing compounds were determined by fitting the sensor grams to both the 1:1 binding kinetics and steady-state affinity models provided in the BIAcore Insight Evaluation Software.

T1 sequence (P22629 37-163 limits assumed): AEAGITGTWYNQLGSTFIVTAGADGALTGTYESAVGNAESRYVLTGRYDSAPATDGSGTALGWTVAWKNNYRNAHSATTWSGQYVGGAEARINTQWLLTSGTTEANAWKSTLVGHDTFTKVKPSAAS

Structure (SMILES): CC(=O)N(Cc1cccnc1)Cc1nc(C(=O)N(C)CC(=O)NCCOCCOCC(=O)NCC(N)=O)cs1 [Compound 2]
- recovery in sorted hit pool (LC-MS peak) [1]: major peak
- binding of mSA-647 to bead-displayed ligand [2]: did not retain detectable levels; also recorded: not observed
- dose-dependent binding of SA-647 (MFI by flow cytometer) [3]: dose-dependent binding
- Kd [4]: 706 µM

From PMC12598851, “Exploiting Avidity Effects for the Discovery of Low Affinity Protein-Binding Fragments” (Journal of Medicinal Chemistry, 2025)
